These results are taken from patent publication US9532997B2, “Compositions and methods for promoting intestinal stem cell function” (Whitehead Institute for Biomedical Research, priority 2012, dated 2017).

In one experiment the target is T1, mTORC1 (Mus musculus, UniProt P26883+Q9JLN9).
T1 construct: from tissue; host or cells: mouse small intestine sections, isolated crypts and sorted Paneth cells
The experiment in a line: Phospho-S6 (P-S6) immunostain as mTORC1 reporter in intestine / sorted Paneth cells. The experiment is classed as in vivo, mice. The source says: Mice were housed in the Unit for Laboratory Animal Medicine at the Whitehead Institute for Biomedical Research. Lgr5-EGFP-IRES-CreERT2 mice (Strain name: B6.129P2-Lgr5tm1(cre/ERT2)Cle/J, Stock Number: 008875) were purchased from Jackson Laboratories. UbiquitinC-CreERT2 mice were obtained from the Jackson Laboratory (Strain Name: B6; 129S-Tg(UBC-cre/ERT2)1Ejb/J, Stock Number: 007001). Rictor floxed mice were generated as described in^27 and backcrossed to C57BL/6 for at least 6 generations. TSC1^loxp/loxp mice were the generous gift of D. Kwiatkowski (Harvard Medical School) and backcrossed to C57BL/6 for at least 6 generations. Rosa26-CreERT2 mice (Rosa26 or R26) were obtained from the Jackson Laboratory (Strain 15 Name: B6.129-Gt(ROSA)26Sor^iml(cre/ERT2)Tyj/J, Stock Number 008463). CR was achieved by providing individual or paired mice a daily portion of a chow diet fortified with vitamins and minerals amounting to 60% of the daily food intake of their ad libitum counterparts^20. All adult mice used in CR experiments were between the ages of 10 to 24 weeks and were sacrificed prior to their daily feeding. Rictor or TSC1 was excised by treatment with tamoxifen suspended in corn or sunflower seed oil (Spectrum) at a concentration of 10 mg/mL, and 200 μl per 25 g of body weight was injected intraperitoneally into mice once daily for 5-7 days. […] Mice were allowed to recover for at least 7 days after the last tamoxifen injection prior to any experiments. In vivo fate mapping in Lgr5-EGFP-IRES-reERT2; Rosa26loxpstoploxp-LacZ compound mice was done with a single injection of tamoxifen given at 200 μl per 25 g. As described previously^28, Rapamycin (LC Laboratories) was administered by intraperitoneal injection for 7 to 28 consecutive doses at 4 mg/kg. It was reconstituted in absolute ethanol at 10 mg/ml and diluted in 5% Tween-80 (Sigma) and 5% PEG-400 (Hampton Research) before injection. The final volume of all injections was 200 μl. Regular insulin (Lilly) was administered at 0.75 U/kg diluted in PBS 20 minutes prior to sacrificing fasted mice. […]

The test system of the next experiment is AL and CR-derived crypts. Put plainly: Crypt culture organoid formation with agent added to culture media. Particulars: for organoid forming capacity of AL and CR-derived crypts: 100 nM, FIG. 4h. The experiment is classed as cell-based, mice. As to the method: Small intestines were removed and the fat/mesentery was dissected away. The intestinal lumen was washed with ice cold PBS (Mg—/Ca—) using a 18 G feeding needle (Roboz FN-7905) until the intestines appeared white/pink. They were then opened longitudinally. The mucous was removed by gently rubbing the intestine between fingers in cold PBS. The intestines were cut into 3 to 5 mm fragments and placed into 50 ml conical tubes that were fill with ice cold 30 ml of PBS (Mg—/Ca—)/EDTA (10 mM). The samples were incubated and shook intermittently on ice for 30 minutes continuously discarding and replacing (at least 3 times) the supernatant. The fragments were then continually resuspended with ice cold 30 ml PBS (Mg—/Ca—)/EDTA (10 mM) and intermittently shook on ice for 10 minutes, discarding the supernatant again for 3 times. The fragments were resuspended again with ice cold 30 ml PBS (Mg—/Ca—)/EDTA (10 mM) and incubated and intermittently shook while waiting on ice for 20 to 40 minutes. The samples were then triturated with a 10 ml pipette 1 to 2 times, and the contents were filtered twice through a 70-μm mesh (BD Falcon) into a 50 ml conical tube to remove villous material and tissue fragments. At this point the suspension was mainly composed of crypts. Crypts were removed from this step for crypt culture experiments and embedded in matrigel with crypt culture media. For ISC isolation, the crypt suspensions were centrifuged for 5 minutes at 250 g (4 C or room temperature). The pellets were gently resuspended in 1.0 ml of undiluted TrypLE Express (Invitrogen)+120 μl of DNase I (10 U/μl, Roche) and transferred to 15 ml conical tubes. The samples were incubated in a 32° C. water bath for 1.25 to 2 minutes, were not titurated, and were then placed on ice. 12 ml of cold SMEM was added to each sample and were gently triturated twice. […]
Isolated crypts were counted and embedded in matrigel (BD Bioscience 356231 growth factor reduced) that contains 1 μM Jagged (Ana-Spec) at 5-10 crypts/μl and cultured in a modified form of medium as described in^3. […]

The target in the next experiment is T2, Bst-1 (Mus musculus, UniProt Q64277).
T2 construct: endogenous in cells; host or cells: primary small-intestinal crypts from calorie-restricted mice, cultured in matrigel
T2 sequence (Q64277 25-286): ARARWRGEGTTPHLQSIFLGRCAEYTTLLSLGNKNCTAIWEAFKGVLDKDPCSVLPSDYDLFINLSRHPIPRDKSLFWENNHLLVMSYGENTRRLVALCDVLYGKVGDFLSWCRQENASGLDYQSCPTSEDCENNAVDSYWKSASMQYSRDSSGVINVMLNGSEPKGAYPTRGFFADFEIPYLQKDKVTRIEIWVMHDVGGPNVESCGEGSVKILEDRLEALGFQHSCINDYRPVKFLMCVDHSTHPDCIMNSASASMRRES
Put plainly: Bst-1 siRNA knock-down in CR-derived crypts, organoid formation. Particulars: cADPR added to siRNA-treated crypts. The experiment is classed as cell-based, mice. As to the method:
Isolated ISCs or Paneth cells were centrifuged for 5 minutes at 250 g and then resuspended in the appropriate volume of crypt culture medium (500-1000 cells/μl) supplemented with 1×N2 (Invitrogen), 1×B27 (Invitrogen), 100 ng/ml Wnt-3A (R&D), and with additional 500 ng/ml R-Spondin to yield 1 μg/ml final concentration. ISCs were then seeded into matrigel (BD Bioscience 356231 growth factor reduced) containing 1 μM Jagged (Ana-Spec) up to 5,000-10,000 cells/30-50 μl. 30 μl drops of 65% matrigel were plated onto a flat bottom 48-well plate (Corning 3548) and then Paneth cells were added at the same cell count to the top of the matrigel drop. Alternatively, ISCs and Paneth cells were mixed after sorting in a 1:1 ratio, centrifuged, and then seeded into matrigel. The matrigel drops with ISCs and Paneth cells were allowed to solidify for 20 to 30 minutes in a 37° C. incubator. […] Organoid bodies were quantitated on days 3, 7, and 9 days of culture, unless otherwise specified. In subcloning experiments, either individual or cultures of organoids were manually disrupted as indicated in the text on day 7-9 by rigorous tituration and replated into fresh matrigel; these secondary organoid bodies were quantitated on day 18 after initiation of the primary cultures. […]

Entries after “also recorded” stand apart in the source; their conditions may differ.

Consider “insulin: Regular insulin (Lilly) administered at 0.75 U/kg to fasted mice”, for which, in the experiment with mTORC1 (20 minutes after injection, FIG. 2b), the “P-S6 in sorted Paneth cells from fasted mice” value is reported as “induced”. The “mTORC1 activity (P-S6) in Paneth cells” value with mTORC1 (fasted mice, insulin 0.75 U/kg, FIG. 2a) was “activates mTORC1 in Paneth cells”.
As to `N=c1c2ncn3c2ncn1[C@@H]1O[C@H](COP(=O)(O)OP(=O)(O)OC[C@H]2O[C@@H]3[C@H](O)[C@@H]2O)[C@@H](O)[C@H]1O` [cADPR, cyclic ADP ribose], the “organoid forming potential (clonogenicity and size) of AL crypts” value in the experiment with AL and CR-derived crypts (50 μM added to culture media, FIG. 4e) is “significantly improved the clonogenicity and size of AL-derived organoid bodies; also recorded: increased the organoid forming potential of AL crypts to an extent similar to those of CR crypts”. Besides, the “rescue of function of Bst-1 knock-down CR crypts” value on Bst-1 is recorded as “sufficient to rescue the function of these crypts”.
With `OCCN(CCO)c1nc(N2CCCCC2)c2nc(N(CCO)CCO)nc(N3CCCCC3)c2n1` [Dipyridamole], the “organoid forming capacity of AL and CR-derived crypts” value is “reduced the organoid forming capacity of AL and CR-derived crypts to a similar level” in the experiment on AL and CR-derived crypts; “reduced the clonogenicity of CR and AL-derived crypts to same level” in the experiment on AL and CR-derived crypts (listed as dipyridamole).
